Results published in PubChem BioAssay (NCI).
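Results reflect a 48-hour exposure of cells in 96-well plates to compound at five concentrations. TGI denotes the concentration required for complete inhibition of growth.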

Key:
Test in all cases: growth of human tumour cells (NCI), 48 h
786-0 renal = system: 786-0 renal
A498 renal = system: A498 renal
A549 NSCLC = system: A549 NSCLC
ACHN renal = system: ACHN renal
BT-549 breast = system: BT-549 breast
CAKI-1 renal = system: CAKI-1 renal
COLO 205 colon = system: COLO 205 colon
DU-145 prostate = system: DU-145 prostate
EKVX NSCLC = system: EKVX NSCLC
HCC-2998 colon = system: HCC-2998 colon
HCT-116 colon = system: HCT-116 colon
HCT-15 colon = system: HCT-15 colon
HOP-62 NSCLC = system: HOP-62 NSCLC
HOP-92 NSCLC = system: HOP-92 NSCLC
HS 578T breast = system: HS 578T breast
HT29 colon = system: HT29 colon
IGROV1 ovarian = system: IGROV1 ovarian
K-562 leukemia = system: K-562 leukemia
KM12 colon = system: KM12 colon
LOX IMVI melanoma = system: LOX IMVI melanoma
M14 melanoma = system: M14 melanoma
MALME-3M melanoma = system: MALME-3M melanoma
MCF7 breast = system: MCF7 breast
MDA-MB-231 breast = system: MDA-MB-231 breast
MDA-MB-435 = system: MDA-MB-435
MDA-N = system: MDA-N
NCI-H226 lung = system: NCI-H226 lung
NCI-H23 lung = system: NCI-H23 lung
NCI-H460 lung = system: NCI-H460 lung
NCI-H522 lung = system: NCI-H522 lung
NCI/ADR-RES ovarian = system: NCI/ADR-RES ovarian
OVCAR-3 ovarian = system: OVCAR-3 ovarian
OVCAR-4 ovarian = system: OVCAR-4 ovarian
OVCAR-5 ovarian = system: OVCAR-5 ovarian
OVCAR-8 ovarian = system: OVCAR-8 ovarian
PC-3 prostate = system: PC-3 prostate
RPMI-8226 leukemia = system: RPMI-8226 leukemia
RXF 393 renal = system: RXF 393 renal
SF-268 CNS = system: SF-268 CNS
SF-295 CNS = system: SF-295 CNS
SF-539 CNS = system: SF-539 CNS
SK-MEL-2 melanoma = system: SK-MEL-2 melanoma
SK-MEL-28 melanoma = system: SK-MEL-28 melanoma
SK-MEL-5 melanoma = system: SK-MEL-5 melanoma
SK-OV-3 ovarian = system: SK-OV-3 ovarian
SN12C renal = system: SN12C renal
SNB-19 CNS = system: SNB-19 CNS
SNB-75 CNS = system: SNB-75 CNS
SR leukemia = system: SR leukemia
SW-620 colon = system: SW-620 colon
TK-10 renal = system: TK-10 renal
U251 CNS = system: U251 CNS
UACC-257 melanoma = system: UACC-257 melanoma
UACC-62 melanoma = system: UACC-62 melanoma
UO-31 renal = system: UO-31 renal
CCRF-CEM leukemia = system: CCRF-CEM leukemia
HL-60(TB) leukemia = system: HL-60(TB) leukemia
MOLT-4 leukemia = system: MOLT-4 leukemia
T-47D breast = system: T-47D breast

Question: Which results are given for `O=C(O)CSc1nnc2c3ccccc3c3ccccc3c2n1`?
Answer: TGI (786-0 renal): > 100 µM; TGI (A498 renal): > 100 µM; TGI (A549 NSCLC): > 100 µM; TGI (ACHN renal): > 100 µM; TGI (BT-549 breast): > 100 µM; TGI (CAKI-1 renal): > 100 µM; TGI (COLO 205 colon): > 100 µM; TGI (DU-145 prostate): > 100 µM; TGI (EKVX NSCLC): > 100 µM; TGI (HCC-2998 colon): > 100 µM; TGI (HCT-116 colon): > 100 µM; TGI (HCT-15 colon): > 100 µM; TGI (HOP-62 NSCLC): > 100 µM; TGI (HOP-92 NSCLC): > 100 µM; TGI (HS 578T breast): > 100 µM; TGI (HT29 colon): > 100 µM; TGI (IGROV1 ovarian): > 100 µM; TGI (K-562 leukemia): > 100 µM; TGI (KM12 colon): > 100 µM; TGI (LOX IMVI melanoma): > 100 µM; TGI (M14 melanoma): > 100 µM; TGI (MALME-3M melanoma): > 100 µM; TGI (MCF7 breast): > 100 µM; TGI (MDA-MB-231 breast): > 100 µM; TGI (MDA-MB-435): > 100 µM; TGI (MDA-N): > 100 µM; TGI (NCI-H226 lung): > 100 µM; TGI (NCI-H23 lung): > 100 µM; TGI (NCI-H460 lung): > 100 µM; TGI (NCI-H522 lung): > 100 µM; TGI (NCI/ADR-RES ovarian): > 100 µM; TGI (OVCAR-3 ovarian): > 100 µM; TGI (OVCAR-4 ovarian): > 100 µM; TGI (OVCAR-5 ovarian): > 100 µM; TGI (OVCAR-8 ovarian): > 100 µM; TGI (PC-3 prostate): > 100 µM; TGI (RPMI-8226 leukemia): 99.4 µM; TGI (RXF 393 renal): > 100 µM; TGI (SF-268 CNS): > 100 µM; TGI (SF-295 CNS): > 100 µM; TGI (SF-539 CNS): > 100 µM; TGI (SK-MEL-2 melanoma): > 100 µM; TGI (SK-MEL-28 melanoma): > 100 µM; TGI (SK-MEL-5 melanoma): > 100 µM; TGI (SK-OV-3 ovarian): > 100 µM; TGI (SN12C renal): > 100 µM; TGI (SNB-19 CNS): > 100 µM; TGI (SNB-75 CNS): > 100 µM; TGI (SR leukemia): > 100 µM; TGI (SW-620 colon): > 100 µM; TGI (TK-10 renal): > 100 µM; TGI (U251 CNS): > 100 µM; TGI (UACC-257 melanoma): > 100 µM; TGI (UACC-62 melanoma): > 100 µM; TGI (UO-31 renal): > 100 µM

Question: How did the TGI (786-0 renal) turn out when `O=C1Cc2c([nH]c3cc(Br)ccc23)-c2ccccc2N1` was run?
Answer: > 100 µM

Question: What about the TGI (A498 renal) of the same compound?
Answer: 49 µM

Question: And the TGI (A549 NSCLC)?
Answer: 64.1 µM

Question: And the TGI (ACHN renal)?
Answer: 64.7 µM

Question: And the TGI (BT-549 breast)?
Answer: 46.9 µM

Question: And the TGI (CCRF-CEM leukemia)?
Answer: 20.2 µM

Question: And the TGI (COLO 205 colon)?
Answer: 93.8 µM

Question: What about the TGI (DU-145 prostate) of the same compound?
Answer: 79.7 µM

Question: And the TGI (HCT-116 colon)?
Answer: 15.9 µM

Question: What about the TGI (HCT-15 colon) of the same compound?
Answer: 25.2 µM

Question: And the TGI (HL-60(TB) leukemia)?
Answer: > 100 µM

Question: What about the TGI (HOP-62 NSCLC) of the same compound?
Answer: 26 µM

Question: And the TGI (HOP-92 NSCLC)?
Answer: 88.3 µM

Question: What about the TGI (HS 578T breast) of the same compound?
Answer: 69.9 µM

Question: And the TGI (HT29 colon)?
Answer: 37.2 µM

Question: What about the TGI (IGROV1 ovarian) of the same compound?
Answer: 99.7 µM

Question: What about the TGI (K-562 leukemia) of the same compound?
Answer: > 100 µM

Question: And the TGI (KM12 colon)?
Answer: > 100 µM

Question: What about the TGI (LOX IMVI melanoma) of the same compound?
Answer: 37 µM

Question: And the TGI (M14 melanoma)?
Answer: 37.5 µM

Question: What about the TGI (MALME-3M melanoma) of the same compound?
Answer: 48.1 µM

Question: And the TGI (MCF7 breast)?
Answer: > 100 µM

Question: What about the TGI (MDA-MB-231 breast) of the same compound?
Answer: > 100 µM

Question: What about the TGI (MDA-MB-435) of the same compound?
Answer: > 100 µM

Question: And the TGI (MDA-N)?
Answer: > 100 µM

Question: And the TGI (MOLT-4 leukemia)?
Answer: 40.9 µM

Question: And the TGI (NCI-H226 lung)?
Answer: 34.7 µM

Question: What about the TGI (NCI-H23 lung) of the same compound?
Answer: > 100 µM

Question: And the TGI (NCI-H460 lung)?
Answer: 48.5 µM

Question: And the TGI (NCI-H522 lung)?
Answer: 52.7 µM

Question: And the TGI (OVCAR-3 ovarian)?
Answer: 83.4 µM

Question: And the TGI (OVCAR-4 ovarian)?
Answer: 38.2 µM

Question: And the TGI (OVCAR-5 ovarian)?
Answer: 52.7 µM

Question: And the TGI (OVCAR-8 ovarian)?
Answer: 73.9 µM

Question: And the TGI (PC-3 prostate)?
Answer: 44.3 µM

Question: And the TGI (RXF 393 renal)?
Answer: 12.2 µM

Question: What about the TGI (SF-268 CNS) of the same compound?
Answer: 89.9 µM

Question: And the TGI (SF-295 CNS)?
Answer: 61.3 µM

Question: What about the TGI (SF-539 CNS) of the same compound?
Answer: 37.3 µM

Question: And the TGI (SK-MEL-28 melanoma)?
Answer: > 100 µM

Question: And the TGI (SK-MEL-5 melanoma)?
Answer: 38.9 µM

Question: What about the TGI (SK-OV-3 ovarian) of the same compound?
Answer: 58.8 µM

Question: And the TGI (SN12C renal)?
Answer: 76.4 µM

Question: What about the TGI (SNB-19 CNS) of the same compound?
Answer: 58 µM

Question: What about the TGI (SNB-75 CNS) of the same compound?
Answer: 44.9 µM

Question: And the TGI (SR leukemia)?
Answer: > 100 µM

Question: What about the TGI (SW-620 colon) of the same compound?
Answer: 52.5 µM

Question: And the TGI (T-47D breast)?
Answer: 84.1 µM

Question: And the TGI (TK-10 renal)?
Answer: 87.3 µM

Question: And the TGI (U251 CNS)?
Answer: 31.8 µM

Question: What about the TGI (UACC-62 melanoma) of the same compound?
Answer: 49.2 µM

Question: What about the TGI (UO-31 renal) of the same compound?
Answer: 38.1 µM
